This passage reports % of control and % of inhibition results from ChEMBL document CHEMBL5465560, “Selectivity Literature for EUbOPEN Chemogenomic Library” (2024).

Assay [1] addresses Serine/threonine-protein kinase VRK2 (Homo sapiens) (UniProt Q86Y07). Put plainly: Selectivity interaction (KinomeScan (DiscoverX)) EUB0000607a VRK2. As to conditions: at 10 µM.
Another assay concerns the target Aurora kinase B (Homo sapiens, UniProt Q96GD4). Put plainly: Selectivity interaction (SelectScreen profiling (Invitrogen)) EUB0000607a AURKB. As to conditions: at 2 µM.
Assay [2] deals with Calcium/calmodulin-dependent protein kinase type II subunit beta (Homo sapiens) (UniProt Q13554). Put plainly: Selectivity interaction (ActivX KiNativ screen (kinase selectivity in THP-1 cell lysates)) EUB0000639a CAMK2B. The format is subcellular. As to conditions: lysate, at 0.04 µM.
The target of assay [3] is T1, Testis-specific serine/threonine-protein kinase 1 (Homo sapiens) (UniProt Q9BXA7).
T1 sequence (whole entry): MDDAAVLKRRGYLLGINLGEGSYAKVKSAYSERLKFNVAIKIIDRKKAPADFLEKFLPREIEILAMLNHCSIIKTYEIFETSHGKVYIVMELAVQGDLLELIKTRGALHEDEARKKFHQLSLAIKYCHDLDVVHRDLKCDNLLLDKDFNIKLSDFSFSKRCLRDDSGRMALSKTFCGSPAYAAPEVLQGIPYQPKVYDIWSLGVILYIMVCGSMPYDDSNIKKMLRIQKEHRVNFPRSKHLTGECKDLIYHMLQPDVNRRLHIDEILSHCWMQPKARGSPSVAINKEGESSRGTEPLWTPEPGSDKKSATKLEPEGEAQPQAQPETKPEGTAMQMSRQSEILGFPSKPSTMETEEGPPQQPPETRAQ
Put plainly: Selectivity interaction (KinomeScan (DiscoverX)) EUB0001049a TSSK1B. As to conditions: at 1 µM.

For assay [4], the target named is Tyrosine-protein kinase Blk (Homo sapiens) (UniProt P51451). Put plainly: Selectivity interaction (Upstate Kinase Profiler service (Millipore)) EUB0000056c BLK. As to conditions: at 1 µM.
For assay [5], the target named is T2, Ephrin type-B receptor 4 (Homo sapiens) (UniProt P54760).
T2 sequence (whole entry): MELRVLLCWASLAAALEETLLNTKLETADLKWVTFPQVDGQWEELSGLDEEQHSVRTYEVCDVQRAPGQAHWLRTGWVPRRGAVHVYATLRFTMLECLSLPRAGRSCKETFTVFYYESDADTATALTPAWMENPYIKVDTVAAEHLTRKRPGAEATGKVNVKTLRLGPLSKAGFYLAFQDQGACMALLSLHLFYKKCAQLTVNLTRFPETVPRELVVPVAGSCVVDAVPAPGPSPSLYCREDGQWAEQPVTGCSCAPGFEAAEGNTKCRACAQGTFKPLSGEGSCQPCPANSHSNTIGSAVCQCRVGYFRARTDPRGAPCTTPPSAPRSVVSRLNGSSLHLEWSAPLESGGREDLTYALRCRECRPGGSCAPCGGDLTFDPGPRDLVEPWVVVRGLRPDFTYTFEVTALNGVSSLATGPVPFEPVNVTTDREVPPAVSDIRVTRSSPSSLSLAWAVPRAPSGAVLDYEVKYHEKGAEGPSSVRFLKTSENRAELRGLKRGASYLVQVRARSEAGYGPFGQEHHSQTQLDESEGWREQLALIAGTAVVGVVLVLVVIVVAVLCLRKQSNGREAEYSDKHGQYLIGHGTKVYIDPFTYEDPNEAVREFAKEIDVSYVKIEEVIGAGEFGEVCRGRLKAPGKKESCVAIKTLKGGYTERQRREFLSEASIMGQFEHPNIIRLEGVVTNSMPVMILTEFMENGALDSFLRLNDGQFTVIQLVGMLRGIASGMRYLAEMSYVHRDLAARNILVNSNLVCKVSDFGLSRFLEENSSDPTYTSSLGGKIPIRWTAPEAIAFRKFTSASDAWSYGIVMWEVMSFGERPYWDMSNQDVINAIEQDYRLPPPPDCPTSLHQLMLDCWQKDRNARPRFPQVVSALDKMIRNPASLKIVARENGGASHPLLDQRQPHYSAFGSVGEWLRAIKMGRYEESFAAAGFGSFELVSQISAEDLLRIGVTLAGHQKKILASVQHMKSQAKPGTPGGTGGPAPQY
Put plainly: Selectivity interaction (KinomeScan (DiscoverX)) EUB0000655a EPHB4. As to conditions: at 10 µM.

Assay [6] has as its target T3, Phosphatidylinositol 5-phosphate 4-kinase type-2 gamma (Homo sapiens) (UniProt Q8TBX8).
T3 sequence (whole entry): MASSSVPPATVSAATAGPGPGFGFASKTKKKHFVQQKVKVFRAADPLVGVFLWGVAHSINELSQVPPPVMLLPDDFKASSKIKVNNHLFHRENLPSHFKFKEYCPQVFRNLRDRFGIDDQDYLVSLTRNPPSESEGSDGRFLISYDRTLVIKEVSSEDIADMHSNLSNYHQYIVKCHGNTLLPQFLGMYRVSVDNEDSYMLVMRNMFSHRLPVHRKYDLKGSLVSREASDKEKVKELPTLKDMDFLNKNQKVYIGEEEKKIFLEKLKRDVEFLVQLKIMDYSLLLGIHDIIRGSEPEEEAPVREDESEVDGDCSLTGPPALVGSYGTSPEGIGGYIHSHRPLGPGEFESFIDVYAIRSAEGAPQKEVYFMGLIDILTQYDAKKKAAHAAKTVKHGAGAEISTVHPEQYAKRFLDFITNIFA
Put plainly: Selectivity interaction (KinomeScan (DiscoverX)) EUB0000092b PIP4K2C. As to conditions: at 10 µM.

Chain of Calcium/calmodulin-dependent protein kinase type II subunit beta (Homo sapiens) (Q13554 whole entry): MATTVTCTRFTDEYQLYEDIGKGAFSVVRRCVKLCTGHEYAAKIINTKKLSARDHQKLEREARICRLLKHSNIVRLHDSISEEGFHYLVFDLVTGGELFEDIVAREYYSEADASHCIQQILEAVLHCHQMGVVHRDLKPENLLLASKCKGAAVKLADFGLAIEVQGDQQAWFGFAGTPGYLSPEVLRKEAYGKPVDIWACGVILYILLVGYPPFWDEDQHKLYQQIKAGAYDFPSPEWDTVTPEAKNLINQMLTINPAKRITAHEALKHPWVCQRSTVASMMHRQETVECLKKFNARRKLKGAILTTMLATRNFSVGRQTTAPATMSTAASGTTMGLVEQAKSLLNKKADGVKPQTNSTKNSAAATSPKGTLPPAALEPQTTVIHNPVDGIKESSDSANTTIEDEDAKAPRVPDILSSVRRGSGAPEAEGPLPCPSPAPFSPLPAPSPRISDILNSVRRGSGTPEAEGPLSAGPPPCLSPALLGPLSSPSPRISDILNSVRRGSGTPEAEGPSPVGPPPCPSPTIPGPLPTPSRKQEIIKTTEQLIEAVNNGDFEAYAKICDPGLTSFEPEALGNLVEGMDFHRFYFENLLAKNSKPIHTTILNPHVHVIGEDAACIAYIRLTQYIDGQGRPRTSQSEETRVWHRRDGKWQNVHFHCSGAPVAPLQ
Chain of Aurora kinase B (Q96GD4 whole entry): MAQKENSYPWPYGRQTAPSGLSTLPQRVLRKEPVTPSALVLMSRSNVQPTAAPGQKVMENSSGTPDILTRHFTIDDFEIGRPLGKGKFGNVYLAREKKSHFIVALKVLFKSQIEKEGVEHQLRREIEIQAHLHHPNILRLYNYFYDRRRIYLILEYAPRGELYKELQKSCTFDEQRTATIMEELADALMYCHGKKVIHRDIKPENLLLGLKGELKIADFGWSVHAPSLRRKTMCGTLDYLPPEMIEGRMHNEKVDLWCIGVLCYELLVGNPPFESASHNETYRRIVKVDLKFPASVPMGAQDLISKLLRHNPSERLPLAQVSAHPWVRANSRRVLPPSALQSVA
Chain of Tyrosine-protein kinase Blk (Homo sapiens) (P51451 2-505 limits assumed): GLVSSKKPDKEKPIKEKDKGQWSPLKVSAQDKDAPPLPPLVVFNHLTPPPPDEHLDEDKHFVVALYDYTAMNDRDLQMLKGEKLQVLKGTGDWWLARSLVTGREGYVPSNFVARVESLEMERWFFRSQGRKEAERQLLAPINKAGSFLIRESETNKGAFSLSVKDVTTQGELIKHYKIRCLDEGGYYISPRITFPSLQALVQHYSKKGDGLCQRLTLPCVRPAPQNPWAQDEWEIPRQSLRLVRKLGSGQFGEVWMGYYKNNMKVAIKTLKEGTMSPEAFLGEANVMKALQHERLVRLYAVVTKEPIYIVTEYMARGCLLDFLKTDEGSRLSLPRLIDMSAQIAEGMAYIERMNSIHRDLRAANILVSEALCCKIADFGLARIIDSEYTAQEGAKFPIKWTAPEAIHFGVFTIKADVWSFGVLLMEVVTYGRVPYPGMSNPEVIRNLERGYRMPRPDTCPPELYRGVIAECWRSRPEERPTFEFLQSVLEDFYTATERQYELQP
Chain of Serine/threonine-protein kinase VRK2 (Homo sapiens) (Q86Y07 whole entry): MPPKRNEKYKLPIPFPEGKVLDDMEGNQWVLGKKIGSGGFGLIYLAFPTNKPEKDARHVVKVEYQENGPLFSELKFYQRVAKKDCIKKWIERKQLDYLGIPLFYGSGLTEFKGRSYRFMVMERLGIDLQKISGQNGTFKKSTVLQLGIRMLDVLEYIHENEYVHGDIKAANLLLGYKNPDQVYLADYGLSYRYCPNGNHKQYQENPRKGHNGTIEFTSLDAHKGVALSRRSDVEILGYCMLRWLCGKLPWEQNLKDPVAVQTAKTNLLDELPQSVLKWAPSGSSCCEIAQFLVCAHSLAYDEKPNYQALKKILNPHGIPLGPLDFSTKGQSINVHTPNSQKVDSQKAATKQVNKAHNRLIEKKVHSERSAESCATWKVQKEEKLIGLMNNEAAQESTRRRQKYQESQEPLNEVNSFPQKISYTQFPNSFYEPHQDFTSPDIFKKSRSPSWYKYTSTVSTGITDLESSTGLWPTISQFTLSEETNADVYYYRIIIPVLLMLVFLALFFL

As to `CNC(=O)Nc1ccc(-c2nc(N3CC4CCC(C3)O4)c3cnn(C4CCC5(CC4)OCCO5)c3n2)cc1`, the % of control in assay [1] worked out at 100%. Also, on Aurora kinase B, the % of inhibition worked out at 3%.

As to `CC[C@@H]1[C@H](F)C(=O)N[C@@H]1COc1nccc2cc(C(N)=O)c(OC)cc12` [ZIMLOVISERTIB], in assay [2], the % of inhibition came out at 12.8%.

In turn, `COc1cc(Nc2nc(C)cc(-c3cnn4nc(OC)ccc34)n2)cc(C(F)(F)F)c1` showed a % of control in assay [3] of 100%.

In assay [4], `Cc1ccc(-c2ccc3c(ccc4sc5c(c43)NC[C@@H](C)NC5=O)n2)cn1` displayed a % of inhibition of 14%.

Turning to `CN(C)CCOc1ccc(-c2nc(-c3ccncc3)c(-c3ccc4c(c3)CC/C4=N\O)[nH]2)cc1`, in assay [5], the % of control was found to be 100%.

Take `CCC(=O)N1CCN(c2ccc(-n3c(=O)ccc4cnc5ccc(-c6cnc7ccccc7c6)cc5c43)cc2C(F)(F)F)CC1`: the % of control in assay [6] was found to be 58%.
